Results published in US7816371B2, “Bicycloheteroaryl compounds as P2X7 modulators and uses thereof” (Renovis, Inc., priority 2006, dated 2010).

molecular target: T1, P2X7 receptor (Homo sapiens, UniProt Q99572); assay: IL-1β release assay in differentiated THP-1 cells stimulated with BzATP (Example 9); % inhibition and IC50; format: cell-based; settings: 0.3 μM compound; differentiated THP-1 cells, BzATP 250 uM; read-out: IL-1β % Inhib. @ 0.3 μM
T1 construct: host or cells: THP-1 cells differentiated with LPS and IFN-γ
T1 sequence (Q99572 1-595): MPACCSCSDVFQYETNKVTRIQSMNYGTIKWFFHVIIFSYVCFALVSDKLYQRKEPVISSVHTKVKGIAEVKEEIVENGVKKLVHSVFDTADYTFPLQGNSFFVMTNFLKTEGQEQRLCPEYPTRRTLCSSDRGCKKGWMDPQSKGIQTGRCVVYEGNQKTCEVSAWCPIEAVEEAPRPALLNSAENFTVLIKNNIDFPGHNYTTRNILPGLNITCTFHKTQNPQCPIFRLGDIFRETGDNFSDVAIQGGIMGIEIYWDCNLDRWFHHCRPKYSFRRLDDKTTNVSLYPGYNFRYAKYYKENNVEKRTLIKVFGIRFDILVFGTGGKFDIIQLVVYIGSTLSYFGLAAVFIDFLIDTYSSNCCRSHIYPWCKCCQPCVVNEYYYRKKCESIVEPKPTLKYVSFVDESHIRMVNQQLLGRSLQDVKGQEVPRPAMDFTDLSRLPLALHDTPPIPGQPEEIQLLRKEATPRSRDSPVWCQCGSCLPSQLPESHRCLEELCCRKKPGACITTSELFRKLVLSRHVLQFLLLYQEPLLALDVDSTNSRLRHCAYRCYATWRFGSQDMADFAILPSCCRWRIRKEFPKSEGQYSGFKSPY
Procedure: The cells are then pretreated for 30 minutes with the compound of interest at the appropriate concentration in RPMI media containing 100 IU/mL penicillin, 100 ug/mL streptomycin. […] 30 uL of cell supernatant is then collected and IL-1β levels determined via ELISA (R&D systems Cat. # HSLB50) according to manufacturer's recommendations using the Tecan Safire plate reader. Background adjusted IL-1β levels of drug treated and non-treated cells are used to calculate the percent inhibition.
The compounds set forth in Table 1 were tested for activity in a cellular model as described herein.

| Structure (SMILES) | inhibition at 0.3 µM [%] |
| --- | --- |
| C[C@H](C(N)=O)n1ccc2c(NC(=O)Cc3ccc(C(F)(F)F)cc3)c(Cl)ccc2c1=O [Compound 316, (R)-2-{6-Chloro-1-oxo-5-[2-(4-trifluoromethyl-phenyl)-acetylamino]-1H-isoquinolin-2-yl}-propionamide] | 51 to 75 |

same assay, conditions: THP-1 cells differentiated with LPS and IFN-γ, 30 min pretreatment, BzATP 250 uM, IL-1β by ELISA

| Structure (SMILES) | IC50 [µM] |
| --- | --- |
| C[C@H](C(N)=O)n1ccc2c(NC(=O)Cc3ccc(C(F)(F)F)cc3)c(Cl)ccc2c1=O [Compound 316, (R)-2-{6-Chloro-1-oxo-5-[2-(4-trifluoromethyl-phenyl)-acetylamino]-1H-isoquinolin-2-yl}-propionamide] | 0.00229 |
| C[C@@H](C(=O)Nc1cccc2c(=O)n([C@@H](C)CO)ccc12)c1ccc(Cl)c(Cl)c1 [Compound 317] | 0.0937 |
| C[C@@H](CO)n1ccc2c(NC(=O)Cc3ccc(C(F)(F)F)cc3)cccc2c1=O [Compound 318] | 0.133 |
| C[C@H](CO)n1ccc2c(NC(=O)Cc3ccc(C(F)(F)F)cc3)cccc2c1=O [Compound 319] | 0.0251 |
| C[C@H](CO)n1ccc2c(NC(=O)[C@H](C)c3ccc(Cl)c(Cl)c3)cccc2c1=O [Compound 320] | 0.00954 |
| C[C@H](C(=O)Nc1cccc2c(=O)n([C@H](C)CO)ccc12)c1ccc(Cl)c(Cl)c1 [Compound 321] | 0.0134 |
| C[C@H](C(=O)Nc1cccc2c(=O)n([C@H](C)C(=O)O)ccc12)c1ccc(Cl)cc1 [Compound 322, (R)-2-{5-[(S)-2-(4-Chloro-phenyl)-propionylamino]-1-oxo-1H-isoquinolin-2-yl}-propionic acid] | 0.572 |
| CC(C)[C@H](C(=O)O)n1ccc2c(NC(=O)[C@@H](C)c3ccc(Cl)cc3)cccc2c1=O [Compound 323, (R)-2-{5-[(S)-2-(4-Chloro-phenyl)-propionylamino]-1-oxo-1H-isoquinolin-2-yl}-3-methyl-butyric acid] | 0.32 |
| C[C@H](CO)n1ccc2c(NC(=O)Cc3cccc(C(F)(F)F)c3F)cccc2c1=O [Compound 324] | 0.0221 |
| C[C@@H](CO)n1ccc2c(NC(=O)Cc3cccc(C(F)(F)F)c3F)cccc2c1=O [Compound 325] | 0.0846 |
| C[C@H](C(=O)Nc1cccc2c(=O)n([C@@H](C)CO)ccc12)c1ccc(Cl)c(Cl)c1 [Compound 326] | 0.122 |
| C[C@H](CO)n1ccc2c(NC(=O)Cc3ccc(Cl)cc3F)cccc2c1=O [Compound 327] | 0.0394 |
| C[C@@H](CO)n1ccc2c(NC(=O)Cc3ccc(Cl)cc3F)cccc2c1=O [Compound 328] | 0.202 |
| C[C@H](CO)n1ccc2c(NC(=O)Cc3ccc(F)c(Cl)c3)cccc2c1=O [Compound 329] | 0.206 |
| C[C@H](CO)n1ccc2c(NC(=O)Cc3ccc(Cl)c(F)c3)cccc2c1=O [Compound 330, 2-(4-Chloro-3-fluorophenyl)-N-[2-((R)-2-hydroxy-1-methyl-ethyl)-1-oxo-1,2-dihydro-isoquinolin-5-yl]-acetamide] | 0.0133 |
| C[C@@H](CO)n1ccc2c(NC(=O)Cc3ccc(F)c(Cl)c3)cccc2c1=O [Compound 331] | 0.163 |
| C[C@H](CO)n1ccc2c(NC(=O)Cc3ccc(Cl)c(Cl)c3)cccc2c1=O [Compound 333, 2-(3,4-Dichloro-phenyl)-N-[2-((R)-2-hydroxy-1-methyl-ethyl)-1-oxo-1,2-dihydro-isoquinolin-5-yl]-acetamide] | 0.00101 |

| Structure (SMILES) | IC50 [µM] |
| --- | --- |
| C[C@@H](CO)n1ccc2c(NC(=O)Cc3ccc(Cl)c(F)c3)cccc2c1=O [Compound 334] | 0.202 |
| C[C@H](CO)n1ccc2c(NC(=O)Cc3ccc(C(F)(F)F)c(F)c3)cccc2c1=O [Compound 335] | 0.00931 |
| C[C@@H](CO)n1ccc2c(NC(=O)Cc3ccc(C(F)(F)F)c(F)c3)cccc2c1=O [Compound 336] | 0.0498 |
| CC(C(=O)Nc1cccc2c(=O)n([C@H](C)C(N)=O)ccc12)c1cccc(C(F)(F)F)c1F (stereo partly drawn) [Compound 337] | 0.00915 |
| C[C@@H](CO)n1ccc2c(NC(=O)Cc3ccc(F)c(C(F)(F)F)c3)cccc2c1=O [Compound 338] | 0.0481 |
| C[C@H](CO)n1ccc2c(NC(=O)Cc3ccc(F)c(C(F)(F)F)c3)cccc2c1=O [Compound 339] | 0.0105 |
| O=C(Cc1ccc(F)c(Cl)c1)Nc1cccc2c(=O)n(CCO)ccc12 [Compound 341] | 0.0526 |
| C[C@H](C(N)=O)n1ccc2c(NC(=O)Cc3ccc(Cl)cc3F)c(Cl)ccc2c1=O [Compound 343] | 0.395 |
| C[C@@H](C(N)=O)n1ccc2c(NC(=O)Cc3ccc(F)c(Cl)c3)cccc2c1=O [Compound 346] | 0.0669 |
| C[C@@H](C(N)=O)n1ccc2c(NC(=O)Cc3ccc(C(F)(F)F)c(F)c3)cccc2c1=O [Compound 347] | 0.0312 |
| C[C@@H](C(N)=O)n1ccc2c(NC(=O)Cc3ccc(F)c(C(F)(F)F)c3)cccc2c1=O [Compound 348] | 0.0208 |
| C[C@@H](C(N)=O)n1ccc2c(NC(=O)Cc3cccc(C(F)(F)F)c3F)cccc2c1=O [Compound 349] | 0.0489 |
| C[C@@H](C(N)=O)n1ccc2c(NC(=O)Cc3ccc(Cl)cc3F)cccc2c1=O [Compound 350] | 0.0136 |
| C[C@@H](C(N)=O)n1ccc2c(NC(=O)Cc3ccc(C(F)(F)F)cc3)cccc2c1=O [Compound 351] | 0.0358 |
| C[C@@H](C(N)=O)n1ccc2c(NC(=O)Cc3ccc(Cl)c(F)c3)cccc2c1=O [Compound 352] | 0.0327 |
| C[C@@H](C(N)=O)n1ccc2c(NC(=O)Cc3ccc(Cl)c(C(F)(F)F)c3)cccc2c1=O [Compound 353] | 0.0296 |
| C[C@H](CO)n1ccc2c(NC(=O)Cc3ccc(F)c(C(F)(F)F)c3)c(Cl)ccc2c1=O [Compound 377, N-[6-Chloro-2-((R)-2-hydroxy-1-methyl-ethyl)-1-oxo-1,2-dihydro-isoquinolin-5-yl]-2-(4-fluoro-3-trifluoromethyl-phenyl)-acetamide] | 0.00038 |

The next lines start with the values.

| IC50 [µM] | Structure (SMILES) |
| --- | --- |
| 0.0842 | O=C(Cc1ccc(Cl)c(F)c1)Nc1cccc2c(=O)n(CCO)ccc12 [Compound 354] |
| 0.0369 | CC(C(=O)Nc1cccc2c(=O)n([C@@H](C)C(N)=O)ccc12)c1cccc(C(F)(F)F)c1F (stereo partly drawn) [Compound 355] |
| 0.0155 | CC(C(=O)Nc1cccc2c(=O)n([C@@H](C)C(N)=O)ccc12)c1ccc(Cl)c(C(F)(F)F)c1 (stereo partly drawn) [Compound 356] |
| 0.0146 | O=C(Cc1ccc(C(F)(F)F)c(F)c1)Nc1cccc2c(=O)n(CCO)ccc12 [Compound 357] |
| 0.0431 | C[C@H](CO)n1ccc2c(NC(=O)Cc3ccc(C(F)(F)F)cc3F)cccc2c1=O [Compound 359] |
| 0.0143 | C[C@H](CO)n1ccc2c(NC(=O)Cc3ccc(C(F)(F)F)cc3C(F)(F)F)cccc2c1=O [Compound 361] |
| 0.00114 | C[C@H](CO)n1ccc2c(NC(=O)Cc3ccc(Cl)c(C(F)(F)F)c3)cccc2c1=O [Compound 362] |
| 0.167 | CC(C)(CO)n1ccc2c(NC(=O)Cc3ccc(C(F)(F)F)cc3)cccc2c1=O [Compound 363] |
| 0.0411 | CC(C)(CO)n1ccc2c(NC(=O)Cc3ccc(C(F)(F)F)c(F)c3)cccc2c1=O [Compound 365] |
| 0.789 | CC(C)(CO)n1ccc2c(NC(=O)Cc3ccc(C(F)(F)F)cc3C(F)(F)F)cccc2c1=O [Compound 366] |
| 0.106 | CC(C)(CO)n1ccc2c(NC(=O)Cc3ccc(F)c(C(F)(F)F)c3)cccc2c1=O [Compound 367] |
| 0.0603 | CC(C)(CO)n1ccc2c(NC(=O)Cc3cccc(C(F)(F)F)c3F)cccc2c1=O [Compound 368] |
| 0.015 | CC(C)(CO)n1ccc2c(NC(=O)Cc3ccc(Cl)c(C(F)(F)F)c3)cccc2c1=O [Compound 369, 2-(4-Chloro-3-trifluoromethyl-phenyl)-N-[2-(2-hydroxy-1,1-dimethyl-ethyl)-1-oxo-1,2-dihydro-isoquinolin-5-yl]-acetamide] |
| 0.134 | CC(C)(CO)n1ccc2c(NC(=O)Cc3ccc(C(F)(F)F)cc3F)cccc2c1=O [Compound 370] |
| 0.157 | CC(C)(CO)n1ccc2c(NC(=O)Cc3ccc(Cl)c(Cl)c3)cccc2c1=O [Compound 371] |
| 0.421 | CC(C)(CO)n1ccc2c(NC(=O)Cc3ccc(F)c(Cl)c3)cccc2c1=O [Compound 372] |
| 0.258 | CC(C)(CO)n1ccc2c(NC(=O)Cc3ccc(Cl)c(F)c3)cccc2c1=O [Compound 373] |
| 0.175 | CC(C)(CO)n1ccc2c(NC(=O)Cc3ccc(Cl)cc3F)cccc2c1=O [Compound 374] |
| 0.00465 | C[C@H](CO)n1ccc2c(NC(=O)Cc3ccc(C(F)(F)F)c(F)c3)c(Cl)ccc2c1=O [Compound 375, N-[6-Chloro-2-((R)-2-hydroxy-1-methyl-ethyl)-1-oxo-1,2-dihydro-isoquinolin-5-yl]-2-(3-fluoro-4-trifluoromethyl-phenyl)-acetamide] |
| 0.0305 | C[C@H](C(N)=O)n1ccc2c(NC(=O)Cc3ccc(F)c(F)c3F)cccc2c1=O [Compound 379] |
| 0.0643 | C[C@H](C(N)=O)n1ccc2c(NC(=O)Cc3ccc(C(F)(F)F)cc3C(F)(F)F)cccc2c1=O [Compound 380] |
| 0.0324 | C[C@H](C(N)=O)n1ccc2c(NC(=O)Cc3cc(F)c(F)c(F)c3)cccc2c1=O [Compound 381] |
